From ChEMBL document CHEMBL3108753, “FGFR1 Kinase Inhibitors: Close Regioisomers Adopt Divergent Binding Modes and Display Distinct Biophysical Signatures” (ACS Med Chem Lett, 2014)

Columns and labels:
[1] = biological target: T1, Fibroblast growth factor receptor 1 (Homo sapiens, UniProt P11362); experiment: Binding affinity to N-terminal 6xHis-tagged human recombinant FGFR1 (458 to 765) by isothermal titration calorimetric analysis
[2] = biological target: T1, Fibroblast growth factor receptor 1; experiment: Inhibition of N-terminal GST-tagged human recombinant FGFR1 (456 to 765) after 40 mins by mobility shift assay

T1 sequence (P11362 whole entry): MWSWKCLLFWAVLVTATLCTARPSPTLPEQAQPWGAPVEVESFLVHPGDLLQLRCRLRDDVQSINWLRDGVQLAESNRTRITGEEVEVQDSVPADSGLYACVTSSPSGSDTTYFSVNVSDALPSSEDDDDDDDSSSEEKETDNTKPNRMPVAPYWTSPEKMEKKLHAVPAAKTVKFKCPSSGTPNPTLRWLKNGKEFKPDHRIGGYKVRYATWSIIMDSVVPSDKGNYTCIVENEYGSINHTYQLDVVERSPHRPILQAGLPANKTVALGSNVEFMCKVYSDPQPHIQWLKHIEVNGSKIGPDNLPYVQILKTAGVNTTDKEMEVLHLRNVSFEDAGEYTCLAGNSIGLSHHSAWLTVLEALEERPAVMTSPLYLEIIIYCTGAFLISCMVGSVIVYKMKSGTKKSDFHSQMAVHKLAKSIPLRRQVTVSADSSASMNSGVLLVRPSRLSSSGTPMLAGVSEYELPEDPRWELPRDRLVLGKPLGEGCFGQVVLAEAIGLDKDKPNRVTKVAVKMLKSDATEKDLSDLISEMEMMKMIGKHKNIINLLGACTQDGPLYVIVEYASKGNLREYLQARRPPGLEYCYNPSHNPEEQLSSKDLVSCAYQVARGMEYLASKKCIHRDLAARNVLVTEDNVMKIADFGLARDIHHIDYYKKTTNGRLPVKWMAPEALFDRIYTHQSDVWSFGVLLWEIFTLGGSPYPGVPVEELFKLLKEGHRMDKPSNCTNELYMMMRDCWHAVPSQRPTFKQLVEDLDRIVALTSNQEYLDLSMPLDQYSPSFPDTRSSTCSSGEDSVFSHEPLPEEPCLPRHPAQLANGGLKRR

Row | Kd [1] [nM] | IC50 ([2]; read-out: IC50) [nM] | IC50 ([2]; read-out: pIC50 (converted)) [nM] | Structure (SMILES)
1 | 5.8 | 60 |  | COc1cc(CCc2cc(Nc3ccnc(NCc4cc(C)no4)n3)n[nH]2)cc(OC)c1
2 | 447 | 20000 | 100 | COc1ccc(CCc2cc(Nc3ccnc(NCc4cc(C)no4)n3)n[nH]2)cc1OC
